Measured values: article PMC10047683, “A Novel Family of Lysosomotropic Tetracyclic Compounds for Treating Leukemia” (Cancers, 2023)

Assays:
primary AML samples = experiment: Cytotoxicity in primary AML samples (flow cytometry, blast gate); assay type: cell-based, human
From the text: (§1) Primary AML samples were obtained at diagnosis from patients diagnosed at Hospital Clínic of Barcelona (Spain) and Hospital Germans Trias i Pujol (Badalona, Spain). AML diagnosis, classification, and risk stratification were based on the latest revised WHO criteria (Supplementary Table S1). Clinical characteristics of AML patients are summarized in Supplementary Table S1. Mononuclear cells (MNCs) were isolated with Ficoll density gradient centrifugation (GE Healthcare, Chicago, IL, USA). All patients provided their written informed consent in accordance with the Declaration of Helsinki, and the study was approved by the corresponding ethics committees. Mature blood MNCs were isolated from healthy donors’ buffy coats provided by Banc de Sang i Teixits (BSiT, Barcelona, Spain). Umbilical-cord blood was provided by BSiT, and MNCs were depleted for lineage marker-positive cells using magnetic separation with the Human Lineage Cell Depletion kit (Miltenyi Biotec, North Rhine-Westphalia, Germany) following the manufacturer’s recommendations.
(§2) First, 2 × 10^5 (72 h assays in cell lines (Supplementary File S1)), 3 × 10^5 (48 h assays in cell lines) or 7.5 × 10^5 (primary AML, healthy donor buffy coats) cells per mL were cultured in 96-well plates, and all drugs were added at the indicated concentrations. In α-tocopherol experiments, cells were treated with growing concentrations of α-tocopherol and EDK drugs for 48 h. In the NAC and 3MA experiments, treatment was simultaneous with EDK compounds. In glucose deprivation experiments, cells were cultivated with a standard medium (glucose high, 2 g/L), a standard medium without glucose, or a standard medium with galactose (2 g/L) and without glucose. Cell viability was measured via 7-AAD (eBioscience) exclusion and Hoechst33342 (Sigma-Aldrich, St. Louis, MO, USA) positivity staining via flow cytometry, and the cell count was obtained through volume. In the experiments with the primary cells, analyses were performed inside the blast population as detected via blast gates (CD45^low SSC^int). For solid tumor cell lines, viability was analyzed using CellTiter-Glo® Luminescent Cell Viability Assay (Promega).

[1] = test system: peripheral blood mononuclear cells from healthy donors' buffy coats; experiment: Cytotoxicity in healthy donor blood cells; assay type: cell-based, human; conditions: 72 h
From the text: as §1, §2

Compound: CN1CCC(=C2c3ccccc3-c3c2sc2ccccc32)CC1 [EDK-87]
- reduced the numbers of primary leukemic cells (primary AML samples; 14 primary AML samples, 72 h, EDK-87 10 and 25 µM, EDK-88 5 and 10 µM assayed): 43% ± 8.5
- # Live cells refer to control (primary AML samples; AML sample #61, 5 µM, 72 h): 112%
- # Live cells refer to control (primary AML samples; AML sample #61, 10 µM, 72 h): 107%
- # Live cells refer to control (primary AML samples; AML sample #61, 25 µM, 72 h): 47%
- # Live cells refer to control (primary AML samples; AML sample #63, 5 µM, 72 h): 71%
- # Live cells refer to control (primary AML samples; AML sample #63, 10 µM, 72 h): 37%
- # Live cells refer to control (primary AML samples; AML sample #63, 25 µM, 72 h): 13%
- # Live cells refer to control (primary AML samples; AML sample #98, 5 µM, 72 h): 59%
- # Live cells refer to control (primary AML samples; AML sample #98, 10 µM, 72 h): 26%
- # Live cells refer to control (primary AML samples; AML sample #98, 25 µM, 72 h): 5%
- # Live cells refer to control (primary AML samples; AML sample #130, 5 µM, 72 h): 97%
- # Live cells refer to control (primary AML samples; AML sample #130, 10 µM, 72 h): 97%
- # Live cells refer to control (primary AML samples; AML sample #130, 25 µM, 72 h): 35%
- # Live cells refer to control (primary AML samples; AML sample #132, 5 µM, 72 h): 74%
- # Live cells refer to control (primary AML samples; AML sample #132, 10 µM, 72 h): 60%
- # Live cells refer to control (primary AML samples; AML sample #133, 5 µM, 72 h): 60%
- # Live cells refer to control (primary AML samples; AML sample #133, 10 µM, 72 h): 19%
- # Live cells refer to control (primary AML samples; AML sample #134, 5 µM, 72 h): 97%
- # Live cells refer to control (primary AML samples; AML sample #134, 10 µM, 72 h): 89%
- # Live cells refer to control (primary AML samples; AML sample #135, 5 µM, 72 h): 94%
- # Live cells refer to control (primary AML samples; AML sample #135, 10 µM, 72 h): 80%
- # Live cells refer to control (primary AML samples; AML sample #135, 25 µM, 72 h): 14%
- # Live cells refer to control (primary AML samples; AML sample #136, 5 µM, 72 h): 97%
- # Live cells refer to control (primary AML samples; AML sample #136, 10 µM, 72 h): 51%
- # Live cells refer to control (primary AML samples; AML sample #136, 25 µM, 72 h): 2%
- # Live cells refer to control (primary AML samples; AML sample #141, 5 µM, 72 h): 77%
- # Live cells refer to control (primary AML samples; AML sample #141, 10 µM, 72 h): 52%
- # Live cells refer to control (primary AML samples; AML sample #147, 5 µM, 72 h): 17%
- # Live cells refer to control (primary AML samples; AML sample #148, 5 µM, 72 h): 47%
- # Live cells refer to control (primary AML samples; AML sample #148, 10 µM, 72 h): 5%
- # Live cells refer to control (primary AML samples; AML sample #152, 5 µM, 72 h): 83%
- # Live cells refer to control (primary AML samples; AML sample #152, 10 µM, 72 h): 56%
- # Live cells refer to control (primary AML samples; AML sample #153, 5 µM, 72 h): 78%
- # Live cells refer to control (primary AML samples; AML sample #153, 10 µM, 72 h): 65%
- therapeutic window (viability) (primary AML samples; primary AML vs healthy-donor blood cells): 2.4
- healthy-donor blood cells affected ([1]; 9 healthy donors, EDK-87 10 and 25 µM, EDK-88 5 and 10 µM assayed): 33.2% ± 8.1
- # Live cells refer to control ([1]; BC sample #20, 5 µM): 140%
- # Live cells refer to control ([1]; BC sample #20, 10 µM): 113%
- # Live cells refer to control ([1]; BC sample #26, 5 µM): 78%
- # Live cells refer to control ([1]; BC sample #26, 10 µM): 65%
- # Live cells refer to control ([1]; BC sample #31, 5 µM): 83%
- # Live cells refer to control ([1]; BC sample #31, 10 µM): 56%
- # Live cells refer to control ([1]; BC sample #32, 5 µM): 81%
- # Live cells refer to control ([1]; BC sample #32, 10 µM): 41%
- # Live cells refer to control ([1]; BC sample #32, 25 µM): 72%
- # Live cells refer to control ([1]; BC sample #41, 5 µM): 77%
- # Live cells refer to control ([1]; BC sample #41, 10 µM): 87%
- # Live cells refer to control ([1]; BC sample #44, 5 µM): 74%
- # Live cells refer to control ([1]; BC sample #44, 10 µM): 76%
- # Live cells refer to control ([1]; BC sample #44, 25 µM): 80%
- # Live cells refer to control ([1]; BC sample #51, 5 µM): 101%
- # Live cells refer to control ([1]; BC sample #51, 10 µM): 77%
- # Live cells refer to control ([1]; BC sample #59, 5 µM): 89%
- # Live cells refer to control ([1]; BC sample #59, 10 µM): 41%
- # Live cells refer to control ([1]; BC sample #59, 25 µM): 13%
- # Live cells refer to control ([1]; BC sample #63, 5 µM): 92%
- # Live cells refer to control ([1]; BC sample #63, 10 µM): 45%
- # Live cells refer to control ([1]; BC sample #63, 25 µM): 22%
